Assays:
[1] = system: asthmatics; details: not nonasthmatics; cited from earlier work
[2] = system: hamster cheek pouch anerioles; assay: vasoconstriction of hamster cheek pouch arterioles
Excerpt: The constrictor response has classically been attributed to A1 adenosine receptor stimulation or interactions with the renin-angiotensin system. […] In the present invention, specific blockade of the A3 subtype of the adenosine receptor by a meta-substitutedphenylxanthine is effective to block the vasoconstrictive response induced through adenosine activation of this receptor subtype. The use of a meta-substituted phenylxanthine specific inhibitor of the A3 adenosine receptor subtype is effective to inhibit effects induced by adenosine mediated mast cell degranulation, and that disease states including but not limited to myocardial ischemia (Ito et al., Am. J. Physiol. 264 (Heart Circ. Physiol. 33):H I 346-H 1354, 1993), mastcell-dependent inflammation (Raud, J., Acta. Physiol. Scand. 135 (Suppl '578):I-58, 1989), brain arteriole diameter constriction (Rosenblum, W. I., Brain Res. 49:75-82, 1973), and the release of allergic mediators (Ramkumar et al., J. Biol. Chem. 268:16887-16890, 1993), are all amenable to prevention and treatment by contacting A3 receptor bearing mast cells with an amount of a meta-substituted phenylxanthine selective A3 inhibitor effective to prevent mast cell degranulation.

[3] = system: mast cells isolated from rat peritoneum; details: cited from earlier work
[4] = system: A3 adenosine receptor; assay: mast cell degranulation in an animal model; type: in vivo
Excerpt: (§1) The release of enzymes, bioactive amines and arachidonic acid metabolites following mast cell activation causes vasoconstriction, edema, leukocyte accumulation, and ultimately, tissue damage. Mast cell degranulation is a component of myocardian reperfusion injury, hypersensitivity reactions (asthma, allergic rhinitis, and urticaria), ischemic bowel disease, autoimmune inflammation, and atopic dermatitis. Selective A3 adenosine receptor antagonists can be used to treat or prevent these diseases and pathologic effects that result from mast cell degranulation.
as §1, with “of: myocardial” for “of myocardian”, “inflammations, 20” for “inflammation,”, “The present invention relates to the use of highly specific meta-substituted 8-phenylxanthine” for “Selective”, “antagonists” for “antagonists can be used”

[5] = target: T1, human A3 adenosine receptor (Homo sapiens, UniProt P0DMS8); assay: inhibition of forskolin-stimulated cAMP accumulation in stably transfected CHO cells expressing the human A3 receptor; type: cell-based
T1 construct: clone HS-21a contained the complete open reading frame corresponding to the human homolog of the rat A3 adenosine receptor; expressed in transfected cells; host or cells: CHO cells stably transfected with HS-21a cDNA
T1 sequence (P0DMS8 1-318): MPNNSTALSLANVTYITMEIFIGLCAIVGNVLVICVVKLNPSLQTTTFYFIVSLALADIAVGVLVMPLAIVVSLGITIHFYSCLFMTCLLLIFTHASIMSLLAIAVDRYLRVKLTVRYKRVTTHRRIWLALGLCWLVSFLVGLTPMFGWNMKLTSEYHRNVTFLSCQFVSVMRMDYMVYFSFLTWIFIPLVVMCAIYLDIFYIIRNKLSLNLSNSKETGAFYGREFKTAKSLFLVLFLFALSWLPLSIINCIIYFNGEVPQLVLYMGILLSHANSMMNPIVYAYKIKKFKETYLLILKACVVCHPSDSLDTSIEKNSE
Protocol: The human A3 adenosine receptor from a striatal cDNA library can be cloned using a probe derived from the homologous rat sequence.
cAMP Accumulation in Stable CHO Cell Lines
The changes in cAMP accumulation can alternatively be measured in stably transfected CHO cells expressing the human adenosine receptor subtypes. CHO cells are washed twice in phosphate buffered saline (PBS) and detached in 0.2% EDTA in PBS. The cells are pelleted at 800 rpm for 10 min and resuspended in KRH buffer (140 mM NaCl/5 mM KCl/2 mM CaCl2 /1.2 mM MgSO4 /1.2 mM KH2 PO4 /6 mM glucose/25 mM Hepes buffer, pH 7.4). The cells are washed once in KRH buffer and resuspended at 10^7 cells/mL. The cell suspension (100 μl) is mixed with 100 μl of KRH buffer containing 200 uM Ro 20-1724 and incubated at 37° C. for 10 minutes. Adenosine (10 uM) was added in 200 μl KRH buffer containing 200 uM Ro 20-1724 and incubated at 37° C. for 20 minutes. After the incubation, 400 μl of 0.5 mM NaOAc (pH 6.2) was added and the sample was boiled for 20 minutes. The supernatant was recovered by centrifugation for 15 minutes and stored at -70° C. cAMP levels were determined by radiommunoassay (RIANEN kit, DuPont/NEN) using the to acetylation protocol. The effect of antagonists on cAMP accumulation are measured by preincubation for 20 minutes before adding adenosine.

[6] = system: sheep A3 adenosine receptor; details: cited from earlier work
[7] = system: non-transfected CHO cells; assay: 125I-ABA binding to membranes from non-transfected CHO cells
Protocol: Membranes were prepared from stable CHO cell lines in 10 mM Hepes, pH 7.4 containing 0.1 mM benzamidine and 0.1 mM PMSF as described (Mahan, L. C. et al., (1991) Mol. Pharinacol. 40, 1-7). Pellets were resuspended in 5 mM Hepes, pH 7.4/5 mM MgCl2 /0.1 mM benzarnidine/0.1 mM PMSF at a protein concentration of 1-2 mg/mL and were incubated with adenosine deaminase (Boehringer Mannheim), 2 U/mL at 37° C. for 20 minutes. Saturation binding of ^125 I-ABA was carried out on 50 μg of membranes for 120 minutes at 25° C. in a total volume of 100 μl. […] Nonspecific binding was measured in the presence of 1 uM I-ABA. The KD and Bmax values were calculated by the EBDA program (McPherson, G. A. (1983) Computer Programs for Biomedicine 17, 107-114). Competition binding of agonists and antagonists was determined with ^125 I-ABA (0.17-2.0 nM, 2000 Ci/mmol). […] Binding data were analyzed and competition curves were constructed by use of the nonlinear regression curve fitting program Graph PAD InPlot, Version 3.0 (Graph Pad Software, San Diego). Ki values were calculated using the Cheng-Prusoff derivation (Cheng, Y. C. and Prusoff, H. R. (1973) Biochem. Pharmacol. 22, 3099-3108.).
The binding properties of the receptor encoded b HS-21a were evaluated on membranes prepared from CHO cells stably expressing the HS-21a cDNA. […]

[8] = target: T1, human A3 adenosine receptor; assay: 125I-ABA binding to membranes of stably transfected CHO cells expressing the human A3 adenosine receptor (HS-21a)
Protocol: Membranes were prepared from transiently transfected COS7 cells […] after transfection or from G418-selected stably transfected CHO or HEK 293 cells. Cells were harvested in 1 mM EDTA in phosphate buffered saline and centrifuged at 2000×g for 10 minutes. The cell pellet was washed once with phosphate buffered saline. The cell pellet was resuspended in 2 mL of 5 mM Tris, pH 7.6/5mM MgCl2. Membranes were prepared from the cells by freeze-thaw lysis in which the suspension was frozen in a dry ice/ethanol bath and thawed at 25° C. twice. The suspension was homogenized after adding an additional 2 mL of 5 mM Tris, pH 7.6/5 mM MgCl2, in a glass dounce homogenizer with 20 strokes. The membranes were pelleted at 40,000×g at 4° C. for 20 minutes. The membrane pellet was resuspended at a protein concentration of 1-2 mg/mL in binding assay buffer, 50 mM Tris, pH 7.6/10 mM MgCl2. Protein concentration was determined by the method of Bradford ((1976) Anal. Biochem. 72: 248-250). […] Saturation binding of [^125 I]-N^6 -aminiobenizyladenosine (125I-ABA) or [^125 I]-N^6 -2-(4-amino-3-iodophenyl)ethyladenosine (APNEA) was performed on membranes prepared from pSVLA3 transfected COS7 cells. Membranes (100 μg) were incubated in the presence of 0.2 U/mL adenosine deaminase with increasing concentrations of ^125 I-ABA in the range of 0.1-30 nM for 120 minutes at 25° C. in a total volume of 500 μl. The binding assay was terminated by rapid filtration and three washes with ice-cold 50 mM Tris, pH 7.6/10 mM MgCl2 on a Skatron cell harvester equipped with a receptor binding flitermat (SKATRON INSTRUMENTS, INC). Non-specific binding was determined on non-transfected cells. Bound radioactivity was measured by scintillation counting in Ready Safe Scintillation Cocktail (BECKMAN).
The 1.7 kb HS-21a cDNA (A3) was subcloned as a SalI-BamHl fragment into the expression vector pCMV5 (Mumby, S. M., Heukeroth, R. O., Gordon, J. I. and Gilman, A. G. (1990) Proc. Natl. Acad. Sci. USA 87, 728-732.) creating the vector pCMV5-A3. CHO or HEK 293 cells stably expressing the human HS-21 a cDNA were prepared by co-transfection of 15 μg pCMV5-A3 and 1 μg pWLneo (Stratagene) using the calcium phosphate method. Stable cell lines were also generated using EBV based mammalian expression vectors, pREP (INVITROGEN). Neomycin resistant colonies were selected in 1 mg/mL G418 (GIBCO). Stable colonies were screened for expression of HS-21a by ^125 I-ABA binding.
Membranes were prepared from stable CHO cell lines in 10 mM Hepes, pH 7.4 containing 0.1 mM benzamidine and 0.1 mM PMSF as described (Mahan, L. C. et al., (1991) Mol. Pharinacol. 40, 1-7). Pellets were resuspended in 5 mM Hepes, pH 7.4/5 mM MgCl2 /0.1 mM benzarnidine/0.1 mM PMSF at a protein concentration of 1-2 mg/mL and were incubated with adenosine deaminase (Boehringer Mannheim), 2 U/mL at 37° C. for 20 minutes. Saturation binding of ^125 I-ABA was carried out on 50 μg of membranes for 120 minutes at 25° C. in a total volume of 100 μl. The assay was terminated by rapid filtration and three washes with ice-cold binding buffer on a Skatron harvester equipped with a receptor binding filtermat (Skatron Instruments, Inc.). The specific activity of ^125 I-ABA, initially 2,200 Ci/mmol, was reduced to 100 Ci/mmol with nonradioactive I-ABA for saturation analysis. Nonspecific binding was measured in the presence of 1 uM I-ABA. The KD and Bmax values were calculated by the EBDA program (McPherson, G. A. (1983) Computer Programs for Biomedicine 17, 107-114). Competition binding of agonists and antagonists was determined with ^125 I-ABA (0.17-2.0 nM, 2000 Ci/mmol). […] Binding data were analyzed and competition curves were constructed by use of the nonlinear regression curve fitting program Graph PAD InPlot, Version 3.0 (Graph Pad Software, San Diego).

[9] = target: T1, human A3 adenosine receptor; assay: as above; details: 1 mM nonradioactive I-ABA
[10] = 125I-ABA saturation binding, HS-21a stable CHO cell membranes

In the case of `Nc1ncnc2c1ncn2[C@@H]1O[C@H](CO)[C@@H](O)[C@H]1O` [Adenosine, adenosine], the bronchoconstriction [1] is listed as “produces bronchoconstriction in asthmatics but not in nonasthmatics”, the vasoconstrictor action [2] is listed as “vasoconstrictor action” and the “release of granule contents” value [3] is listed as “potentiates the release of granule contents”. For the same compound, the “induction of mast cell degranulation” value [4] was “induce mast cell degranulation” and the “inhibition of forskolin-stimulated cAMP accumulation” value ([5]; stably transfected CHO cells, human A3) was 30-40%.

For `Nc1ccc(CNc2ncnc3c2ncn3[C@@H]2O[C@H](CO)[C@@H](O)[C@H]2O)cc1[125I]` [^125 I-ABA, N^6-(4-amino-3^125 iodobenzyl)adenosine], the “binding / affinity of ligands in words” value [6] is listed as “binds”, the “specific binding to non-transfected cells” value [7] is listed as “No specific binding” and the Bmax [8, 10] is listed as 258 fmol/mg protein. The Hill coefficient [8, 10] was 0.99 and the “agonist activity inferred from effect of uncoupling reagents on binding” value ([8]; HS-21a in stable CHO cell line) was “exhibits some agonist activity”.

In the case of `Nc1ccc(CNc2ncnc3c2ncn3[C@@H]2O[C@H](CO)[C@@H](O)[C@H]2O)cc1I` [I-ABA], the “prevention of specific binding of 125I-ABA” value [9] is given as “prevented”, the agonist affinity order [6] is given as “I-ABA>APNEA>NECA≥R-PIA>>CPA” and the “agonist character (partial agonist)” value ([5]; human A3, stably transfected CHO cells) is given as “partial agonist”.
